{"source": "patent US7906105B1", "about": "“Zinc-activated contrast agents” (Northwestern University, priority 2006, dated 2011)", "key": {"[1]": {"experiment": "Testing of further agents for Zn(II) detection/activation (method not described)", "text": "[drawing 1] wherein R═(CH2)n(n=1 or 2)."}, "[2]": {"experiment": "Stability in 0.1 M phosphate buffer (relaxivity, ICP of supernatant)", "type": "physicochemical", "protocol": "Compound 1 was monitored for 24 hours in a 0.1 M phosphate buffer to determine its stability in solution. Due to the low solubility of GdPO4 (Ksp=10^−22.26 mol^2/L^2) any dissociation of gadolinium from Compound 1 will precipitate, causing a subsequent decrease in relaxivity which was not seen. A more accurate measurement of the amount of gadolinium dissociation can be made from centrifuging the samples and collecting aliquots of the supernatant for evaluation of gadolinium concentration via ICP."}, "[3]": {"experiment": "Competitive binding assay with fluorophore FluoZin-1", "details": "competitive assay against FluoZin-1; read-out: dissociation constant (Kd) of the Gd(III)-Zn(II) complex", "protocol": "(§1) To test the binding ability of the acetate ligands to Zn(II), relaxivity measurements of 1 were measured in the absence and presence of ZnCl2. The relaxitivity of 1 in HEPES buffer without zinc was 2.34 mM^−1 s^−1, as is typical for small molecule contrast agents for which q=0 (8). […] As ZnCl2 was added, the relaxivity increased to 5.3 mM^−1 s^−1 indicative of a q=1 complex (See FIG. 3, left). Similar studies were conducted using MgCl2 and CaCl2 to test for selectivity of the ligand for zinc over other dications known to have higher cellular concentrations and which have similar binding affinities for carboxylic acids. […] A competitive binding assay gave a dissociation constant of 2.38×10^−4 M for the Gd(III)-Zn(II) complex.\n(§2) To evaluate the effectiveness of Compound 1 as an in vivo probe, the stability of Zn-Compound 1 was investigated. Using the commercially available fluorophore FluoZinTM-1 (Invitrogen), the binding constant of zinc can be determined by a competitive assay. Since the Zn(II)-binding regions of the dye and Compound 1 are identical, similar binding constants are to be expected. […] To confirm there was a measurable difference between zinc concentrations, T1 was measured on these same samples on a 14.1 T magnet and on a 1.4 T magnet."}, "[4]": {"experiment": "T1-weighted phantom MR images with Mg(II)", "details": "4.7 T magnet; 1 mM Compound 1 in HEPES, 1 mM MgCl2", "protocol": "(§3) A. Compound 1 selectivity. Images of a 1 mM solution of Compound 1 in HEPES buffer. (A) HEPES buffer only; (B) Compound 1; (C) Compound 1 with 1 mM ZnCl2; (D) Compound 1 with 1 mM MgCl2; (E) Compound 1 with 1 mM CaCl2. B. Compound 1 sensitivity. Images of a 1 mM solution of Compound 1 in HEPES buffer with varying zinc concentrations. (A) 0 μM Zn; (B) 50 μM Zn; (C) 100 μM Zn; (D) 500 μM Zn; (E) 1 mM Zn. (TR=100.0 ms, TE=14.3 ms, FOV=2.5/2.0 cm, data matrix=256×256. TR=repetition time; TE=echo time; FOV=field of view).\nas §2"}, "[5]": {"experiment": "Relaxivity measurements in the absence and presence of ZnCl2", "type": "physicochemical", "protocol": "(§4) Left: Relaxivity of Compound 1 in the presence of XCl2, where X=Zn, Ca, and Mg. All solutions were made in 100 mM KCl/100 mM HEPES at ph=7.4. Right: Relaxivity of Zn-1, 3:1 (Zn:Gd), following titration of EDTA.\nas §1\nAfter 1 was left to equilibrate at 37° C. for 3 days with an excess of zinc, a relaxivity of 9.2 mM^−1 s^−1 was measured, indicating the species has a value of q=2. This measurement corresponds well to a structure proposed by embodiments of the present invention in which the pendant ligands have left the gadolinium for the zinc, leaving two open coordination sites for water to bind. […] Although an understanding of the mechanism is not necessary to practice the present invention and the present invention is not limited to any particular mechanism of action, in some embodiments, this is due to sequestration of Zn(II) by EDTA which leaves the carboxylic acids available to bind to Gd(III) and close the coordination sites (See FIG. 3, right). Adding excess EDTA had no effect on the relaxivity, providing that the Gd(III) ions are not sequestered by EDTA as expected given the high binding constant (˜10^16) for Gd-EDTA for which q=1.\nProton relaxivity measurements on Compound 1 were also performed while titrating with increasing amounts of Zn(II) up to 1:1.4 (Gd: Zn) equivalents. […] The observed linear dependence also rules out the possibility of a 2:1 (Gd:Zn) complex formation."}, "[6]": {"experiment": "T1-weighted phantom MR images with Ca(II)", "details": "4.7 T magnet; 1 mM Compound 1 in HEPES, 1 mM CaCl2", "protocol": "as §3, §2"}, "[7]": {"experiment": "Relaxivity measurements with MgCl2", "type": "physicochemical", "details": "MgCl2, even at 3-fold excess of the dication", "protocol": "as §4, §1"}, "[8]": {"experiment": "T1-weighted phantom MR images with Zn(II)", "protocol": "as §3, §2"}, "[9]": {"experiment": "Relaxivity measurements with CaCl2", "type": "physicochemical", "details": "CaCl2, even at 3-fold excess of the dication", "protocol": "as §4, §1"}, "NIH/3T3 cells [10]": {"tested_on": "NIH/3T3 cells", "experiment": "Cellular uptake, Gd(III) by ICP-MS", "type": "cell-based", "details": "500 μM", "protocol": "(§5) The cell doubling time for NIH/3T3 cells is around 16 hours and one can see over twice as many cells at 24 hours than at 8 hours as one would expect, implying greater than 99% cell viability. B. Compound 1 is taken up at a constant rate for up to 8 hours.\n(§6) Compound 1 was effectively taken up by NIH/3T3 cells at a constant rate for the first 8 hours of treatment. The maximal intracellular concentration of Compound 1 of approximately 10^−14 mol Gd/cell is achieved at 8 hours and maintained up to 24 hours (FIG. 6 B). NIH/3T3 cells were seeded at 10^5 cells per well in 24-well tissue culture plates with Dulbecco's modified Eagle's medium (DMEM) containing 10% bovine calf serum and incubated overnight in a 5% CO2 incubator at 37° C. The media was then changed and Compound 1 added at a concentration of 500 μM. After 2, 4, 8, and 24 hours, cells were washed three times with 1×PBS and exposed to 250 μL of 0.25% trypsin and harvested. Cells were diluted with an equal volume of 0.4% trypan blue and counted on a hemacytometer. For cellular uptake of Compound 1 into cells, cells were incubated with concentrated nitric acid at 70° C. for 3 hours. The dissolved cells were diluted into a 5 ml, solution with 3% nitric acid and 5 ppb of an indium internal standard. The concentration of Gd(III) was then determined using ICP-MS (induction coupled plasma mass spectrometry)."}, "NIH/3T3 cells [11]": {"tested_on": "NIH/3T3 cells", "experiment": "Cell cytotoxicity, trypan blue staining", "type": "cell-based", "design": "cell viability: dose or concentration left out as unconfirmed", "protocol": "as §5, §6"}}, "note": "Values joined by “and” are separate entries in the source; they are usually repeats but may differ in a detail not shown here. Identical values can stand only once. “Also recorded” adds a separate entry of the source."}
{"smiles": "Cc1cccc(OCCN2CCN(CC(=O)[O-])CCN(CC(=O)[O-])CCN(CC(=O)[O-])CC2)c1N(CC(=O)[O-])CC(=O)[O-].[Gd+3]", "note": "[second agent]", "values": [{"measurement": "activation towards Zn(II)", "setting": "[1]", "result": "little activation"}]}
{"smiles": "Cc1cccc(OCCCN2CCN(CC(=O)[O-])CCN(CC(=O)[O-])CCN(CC(=O)[O-])CC2)c1N(CC(=O)[O-])CC(=O)[O-].[Gd+3]", "note": "[Compound 1]", "values": [{"measurement": "decrease in relaxivity (Gd dissociation/precipitation)", "setting": "[2]; 0.1 M phosphate buffer, 24 hours", "result": "not seen"}, {"measurement": "change in [Gd] of supernatant (ICP)", "setting": "[2]; 0.1 M phosphate buffer, time-points up to 24 hours", "result": "no significant change"}, {"measurement": "dissociation constant of the gadolinium complex", "setting": "[2]; suggested from phosphate buffer stability", "result": "on the order of that seen for Gd-DO3A"}, {"measurement": "Kd", "setting": "[3]", "result": "238 µM and 240 µM"}, {"measurement": "MR image difference with Mg(II)", "setting": "[4]", "result": "no discernible difference"}, {"measurement": "relaxivity", "setting": "[5]; HEPES buffer without zinc", "result": 2.34, "unit": "mM⁻¹ s⁻¹"}, {"measurement": "relaxivity", "setting": "[5]; HEPES buffer, ZnCl2 added", "result": 5.3, "unit": "mM⁻¹ s⁻¹"}, {"measurement": "relaxivity", "setting": "[5]; equilibrated at 37° C. for 3 days with an excess of zinc", "result": 9.2, "unit": "mM⁻¹ s⁻¹"}, {"measurement": "increase in relaxivity", "setting": "[5]; in the presence of Zn(II)", "result": "> 100", "unit": "%"}, {"measurement": "MR image difference with Ca(II)", "setting": "[6]", "result": "no discernible difference"}, {"measurement": "change in relaxivity values", "setting": "[7]", "result": "no significant change"}, {"measurement": "MR image intensity in the presence of Zn(II)", "setting": "[8]; 4.7 T magnet, 1 mM Compound 1 in HEPES, 1 mM ZnCl2", "result": "increase in intensity"}, {"measurement": "levels of Zn(II) that can be detected", "setting": "[8]; in vitro MR images", "result": "hundreds of micromolar"}, {"measurement": "visualization of difference between 100 μM and 500 μM zinc", "setting": "[8]; phantom images, 1 mM Compound 1, varying zinc concentrations", "result": "easily visualize the difference"}, {"measurement": "change in relaxivity values", "setting": "[9]", "result": "no significant change"}, {"measurement": "uptake rate", "setting": "NIH/3T3 cells [10]; first 8 hours of treatment", "result": "constant rate"}, {"measurement": "maximal intracellular concentration", "setting": "NIH/3T3 cells [10]; achieved at 8 hours and maintained up to 24 hours", "result": "approximately 10^−14 mol Gd/cell"}, {"measurement": "cell death", "setting": "NIH/3T3 cells [11]; 0.5 mM, up to 24 hours, trypan blue staining", "result": "no observable cell death"}, {"measurement": "cell viability", "setting": "NIH/3T3 cells [11]; 24 hours", "result": "greater than 99%"}, {"measurement": "cell proliferation", "setting": "NIH/3T3 cells [11]; incubation with Compound 1 up to 24 hours", "result": "Normal proliferation; also recorded: proliferated exponentially at the expected rate"}]}
